How the values were obtained:
[1] = biological target: T1, γ-glutamyl kinase Pro1 (GK) (Saccharomyces cerevisiae, UniProt P32264); experiment: PK/LDH-coupled ADP assay, NADH at […] nm; type: biochemical; parameters: full-length ORF in pET15b (NdeI/XhoI), His-tag, E. coli BL21(DE3), Ni Sepharose; tag removal not mentioned; conditions: 400 mM sodium glutamate, 5 mM ATP, 10 mM MgCl2, 100 mM HEPES-NaOH pH 7.4, 30 °C; no proline
T1 sequence (P32264 1-428): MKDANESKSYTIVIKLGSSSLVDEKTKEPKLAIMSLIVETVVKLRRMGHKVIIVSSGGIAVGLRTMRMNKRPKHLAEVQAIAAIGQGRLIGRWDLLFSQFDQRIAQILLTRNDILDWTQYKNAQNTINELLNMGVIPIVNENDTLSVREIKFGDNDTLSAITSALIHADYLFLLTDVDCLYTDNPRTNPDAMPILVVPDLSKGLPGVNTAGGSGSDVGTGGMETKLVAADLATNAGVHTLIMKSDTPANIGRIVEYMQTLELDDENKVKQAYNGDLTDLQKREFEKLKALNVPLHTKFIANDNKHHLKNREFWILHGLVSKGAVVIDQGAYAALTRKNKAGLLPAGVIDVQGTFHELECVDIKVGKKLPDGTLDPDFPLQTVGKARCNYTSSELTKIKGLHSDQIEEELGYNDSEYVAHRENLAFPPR

[2] = biological target: T1, γ-glutamyl kinase Pro1 (GK); conditions: 400 mM sodium glutamate, 5 mM ATP, 10 mM MgCl2, 100 mM HEPES-NaOH pH 7.4, 30 °C; allosteric feedback inhibition
[3] = biological target: γ-glutamyl kinase Pro1 (GK) (Saccharomyces cerevisiae, UniProt P32264, I150T); experiment: biochemical; conditions: read-out: relative activity at 100 mM proline
[4] = biological target: γ-glutamyl kinase Pro1 (GK) (Saccharomyces cerevisiae, UniProt P32264, Q79H); experiment: biochemical; conditions: read-out: relative activity at 100 mM proline
γ-glutamyl kinase Pro1 (GK) (Saccharomyces cerevisiae, UniProt P32264, Q79H), sequence (P32264 whole entry Q79H): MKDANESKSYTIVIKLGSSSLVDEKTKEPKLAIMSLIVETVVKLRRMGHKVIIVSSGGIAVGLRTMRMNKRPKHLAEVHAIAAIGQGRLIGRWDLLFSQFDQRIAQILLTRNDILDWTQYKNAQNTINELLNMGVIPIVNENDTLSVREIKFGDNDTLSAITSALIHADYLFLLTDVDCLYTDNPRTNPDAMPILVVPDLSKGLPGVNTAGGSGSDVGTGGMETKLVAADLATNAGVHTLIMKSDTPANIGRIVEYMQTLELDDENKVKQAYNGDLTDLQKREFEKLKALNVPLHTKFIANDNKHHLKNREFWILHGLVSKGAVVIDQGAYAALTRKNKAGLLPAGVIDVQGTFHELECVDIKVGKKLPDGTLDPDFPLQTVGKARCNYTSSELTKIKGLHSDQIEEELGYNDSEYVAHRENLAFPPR

γ-glutamyl kinase Pro1 (GK) (Saccharomyces cerevisiae, UniProt P32264, I150T), sequence (P32264 whole entry I150T): as the sequence (P32264 whole entry Q79H) above, with H79Q, I150T counted along it

Structure (SMILES) | PK/LDH-coupled ADP assay, NADH at 340 nm [1] | relative activity with 0-5 mM proline [2] | activity at 100000 µM [3] [%] | activity at 100000 µM [4] [%]
Nc1ncnc2c1ncn2[C@@H]1O[C@H](COP(=O)(O)OP(=O)(O)OP(=O)(O)O)[C@@H](O)[C@H]1O [ATP] | GK activity was measured by the production of ADP in an enzyme-coupled system | – | – | –
N[C@@H](CCC(=O)O)C(=O)O [glutamate] | the reaction was initiated by the addition of sodium glutamate | – | – | –
O=C(O)[C@@H]1CCCN1 [proline] | – | in the presence of proline, the GK activity of WT was markedly inhibited | 59 | 96
